In patent publication US10736912B2, “Compositions containing PUFA and/or uridine and methods of use thereof” (MASSACHUSETTS INSTITUE OF TECHNOLOGY, priority 2005, dated 2020):

Assays:
PC-12 cells = assay: 14C-choline incorporation into phospholipids in PC-12 cells; type: cell-based
Procedure: PC-12 cells were maintained in Dulbecco's modified Eagle's medium (DMEM)+10% fetal bovine serum (FBS). For experiments, cells were grown in quintuplicate collagen-coated 35 millimeter (mm) dishes. Cells were incubated for 18 hours (hr) in serum-free DMEM containing 28 μM choline+/−5 micromolar (μM) of DHA, oleic acid, or palmitic acid. Cells were then labeled for 2.5 hr with 0.5 microcurie (μCi)/ml ^14C-choline in serum-free DMEM containing 10-micromolar (μM) choline.
Cells were homogenized in 100 volumes of ice-cold deionized water using a tissue degrader (Polytron PT 10-35, Kinematica AG, Switzerland); 1 ml of aliquots were then mixed with 3 ml of chloroform+methanol mixture (2:1 v/v) and vortexed vigorously for 30 seconds. After cooling for 1 h on ice, the mixture was mixed sequentially with 3 ml of chloroform+methanol mixture (2:1 v/v) and 1 ml of ice-cold deionized water. The mixture was vortexed vigorously and allowed to stand overnight in the cold room (18 h). The organic (lower) and aqueous (upper) phases of the mixtures were separated by centrifugation (10 min at 4° C.; 1000 g). An aliquot (2 ml) of the upper phase was used for determination of CDP-Choline (see below), and 0.1-0.4 ml aliquots of the lower phase were dried under vacuum for phospholipid analysis. Residues of 0.1 ml aliquots of the lower phase were assayed for total phospholipid content by measuring phosphorus. Residues of 0.4 ml aliquots of the lower phase were reconstituted in 40 μl methanol and subjected to thin-layer chromatography using silica G plates (Adsorbosil Plus-1®, Alltech), and a system consisting of chloroform/ethanol/triethylamine/water (30:34:30:8) as the mobile phase. Phospholipid standards were used to identify the corresponding bands under UV light after the plates were sprayed with 0.1% diphenylhexatriene in petroleum ether. Bands for individual phospholipid classes (PC, PE, SM, PS and PI) were scraped off the plates and extracted into 1 ml of methanol; dried under vacuum; and assayed for phosphorus content. Total phosphorus was determined by comparison with standard curves by using KH2PO4 run with each assay. […] Absorbance was measured spectrophotometrically at 820 nm. Phospholipid mass was determined by multiplying the phosphorus content by 25.
In order to assess the effect of omega-3 fatty acids on phospholipid synthesis, PC-12 cells were incubated with ^14C-labeled choline, following an 18-hour pre-incubation with or without DHA. Incorporation of label into phospholipids was then measured. […]
To further characterize the stimulation of phospholipid synthesis by omega-3 fatty acids, PC-12 cells were pre-treated with different doses of DHA and exposed to labeled choline as described in Example 1, then incorporation of ^14C-label into phospholipids was measured. […]

Rat hippocampal cells = assay: 14C-choline incorporation into PC in cultured hippocampal neurons; type: cell-based; details: DHA+choline pre-treatment; 14C-choline 2 h; FIG. 10
Procedure: Rat hippocampal cells were cultured for 3 weeks in Neutrobasal plus B27 medium, to reach full maturation. On the day of the experiment, cells were incubated with DMEM+choline, with or without added DHA. ^14C-choline was added, cells were incubated for an additional 2 h, and newly-formed ^14C-labeled PC was extracted and measured as described in Example 1.
To determine the effect of DHA on phospholipids in neurons in short-term culture, neurons were pre-treated with DHA+choline. […] These findings confirm that DHA increases phospholipid levels in brain and neural cells.

brain CDP-choline levels = assay: Brain CDP-choline and CDP-ethanolamine levels in gerbils; type: in vivo, gerbil; details: 28 days
Text: FIGS. 5A and 5B. FIG. 5A illustrates the effect Effects of DHA on brain CDP-choline levels (FIG. 5A) and while FIG. 5B illustrates the effect of DHA on brain CDP-ethanolamine levels (FIG. 5B). Groups of 8 gerbils received either a control or a UMP-containing diet, and, by gavage, DHA (in a vehicle of 5% gum Arabic solution) or 5% gum Arabic solution alone for 28 days. On the 29th day brains were harvested and assayed for CDP-choline. Data are presented as means±SEM. Statistical analysis was performed using one- or two-way ANOVA followed by Tukey test. a: P<0.05 when compared with the values for control diet plus vehicle group; b: P<0.05 when compared with values for UMP diet plus vehicle group.
Aliquots (2 ml) of the upper (aqueous) phase were dried under a vacuum, reconstituted, and injected into an HPLC. The dried samples were reconstituted in 100-200 μl water and were analyzed by HPLC on an anion exchange column (Alltech Hypersil APS-2, […], 250×4.6 mm). CDP-choline was eluted with a linear gradient of buffers A (H3PO4, 1.75 mM, pH 2.9) and B (NaH2PO2, 500 mM, pH 4.5) from 0 to 100% B over period of 30 min. With this system, CDP-choline was resolved from closely co-eluting substances such as UMP in an isocratic system over a period of 40 min. The retention time for CDP-choline was 9.5 min. The column was washed with buffer B at the end of each experiment and every several days to remove retained nucleotides. Individual nucleotide peaks were detected by UV absorption at 280 nm and were identified by comparison with the positions of authentic standards, as well as by the addition of nucleotide standards to samples.
To determine the effect of PUFA administration on CDP-choline levels, brain CDP-choline levels were measured in the animals from the previous Example. Administration of DHA and/or UMP decreased CDP-choline levels (FIG. 5A) and CDP-ethanolamine levels (FIG. 5B). DHA reduced CDP-choline levels by 26% (compared with those receiving just the control diet and DHA's vehicle), and in UMP-treated gerbils by 21% (compared with those receiving UMP-containing diet and DHA's vehicle) (both P<0.05).

With `CCC=CCC=CCC=CCC=CCC=CCC=CCCC(=O)O` [DHA, 4,7,10,13,16,19-docosahexaenoic acid] the “Phosphatidylcholine (PC) synthesis significantly increased (incorporation of 14C label into PC)” value (PC-12 cells; 5 μM fatty acid, 18 hr pre-incubation, then 14C-choline 2.5 hr, FIG. 1) was “significantly increased”, the “Augmentation of phospholipid synthesis” value (PC-12 cells; different doses of DHA, FIG. 2) was “dose-dependent” and the “Increase in synthesis of phospholipids relative to cells administered choline alone” value (Rat hippocampal cells) was “more than 2 fold”. For the same molecule, the “CDP-choline levels (FIG. 5A)” value (brain CDP-choline levels) was “decreased” and the “CDP-ethanolamine levels (FIG. 5B)” value (brain CDP-choline levels) was “decreased”.
